Patent US20130071495A1, “INHIBITORS OF GLYCOGEN SYNTHASE KINASE 3 FOR USE IN THERAPEUTIC METHODS AND SCREENING METHOD RELATING THERETO” (Helmholtz Zentrum Muenchen Deutsches Forschungszentrum fuer …, priority 2010, published 2013)

How the values were obtained:
Format in all cases: in vivo, C57BL/6N mice
[1] = tested on: elastase-induced emphysema model (mice); test: Immunoblotting and densitometry of SP-C in lung homogenates, elastase-induced emphysema; details: preventive approach, LiCl 200 mg/kg/day i.p. day 0-7; vehicle 0.36±0.06; p=0.0231
Procedure: (§1) Six- to eight-week-old pathogen-free female C57BL/6N mice (Charles River Laboratories) were used throughout this study. All experiments were performed in accordance with the guidelines of the Ethics Committee of the University of Giessen School of Medicine and approved by the Regierungspräsidium Giessen, Hesse, Germany. Mice had free access to water and rodent laboratory chow. Pancreatic elastase was dissolved in sterile PBS and applied orotracheally (100 U/kg BW). Control mice received 80 μl sterile PBS. Lung tissues were excised and snap-frozen or inflated with 4% (m/v) paraformaldehyde in PBS (PAA Laboratories) at 21 cm H2O pressure for histological analyses.
(§2) The WNT/β-catenin signaling pathway in lungs from C57BL/6N mice was activated via intraperitoneal injection of lithium chloride (200 mg/KG/BW/day) (22). Lithium chloride mimics members of the WNT family of signalling proteins by inhibiting the activity of GSK-3β and thus causes intracellular accumulation of β-catenin, a feature associated with the canonical WNT/β-catenin signalling pathway (23). Under these circumstances, β-catenin can enter the nucleus and influence the expression of target genes. Lithium chloride was diluted in sterile water and fresh stock was prepared for every injection. […]

[2] = tested on: elastase-induced emphysema model (mice); test: Collagen assay (Sircol) in whole-lung homogenates, elastase-induced emphysema; details: preventive approach, LiCl 200 mg/kg/day i.p. day 0-7; vehicle 29.6±4.1; p=0.042
Procedure: as §1
as §2, with “(23).” for “(23). Under these circumstances, β-catenin can enter the nucleus and influence the expression of target genes. Lithium chloride was diluted in sterile water and fresh stock was prepared for every injection.”
Whole-mouse lung homogenates were used for in vivo analysis. Total collagen content was determined using the Sircol Collagen Assay kit (Biocolor). […] Samples and collagen standards were then read at 540 nm in a spectrophotometer (Bio-Rad). Collagen concentrations were calculated using a standard curve with acid-soluble type I collagen.

[3] = tested on: elastase-induced emphysema model (mice); test: Quantitative morphometry of lung structure in elastase-induced emphysema
Procedure: as §1
The WNT/β-catenin signaling pathway in lungs from C57BL/6N mice was activated via intraperitoneal injection of lithium chloride (200 mg/KG/BW/day) (22). […]
To assess air space enlargement, the mean chord length (MCL) was quantified by superimposing a line grid on the images of lung sections at a magnification of 200×. Points on the lines of the grid hitting the air spaces, and intercepts of the lines with alveolar septa were counted to calculate MCL according to the formula: MCL=ΣPair×L(p)/(Isepta/2) (μm), where ΣPair is the sum of the points of the grid overlaid air spaces, L(p) is the line length per point and Isepta is the sum of the intercepts of alveolar septa with the lines of the grid. For the morphometric assessment of alveolar surface area per unit volume of lung parenchyma (Sv) were determined by counting the number of points that fell on alveolar septal tissue and alveolar space, and by counting the number of intercepts with alveolar septal surface at a magnification of 200× according to the following formulas: Sv=2×Isepta/(ΣPpar×L(p)/3) (1 μm), where ΣPpar is the sum of the points of hitting parenchyma, L(p) is the line length per test point in μm, and Isepta the sum of the intercepts with alveolar septa.

[4] = tested on: elastase-induced emphysema model (mice); test: qRT-PCR of ECM and alveolar epithelial cell markers in lungs, elastase-induced emphysema; details: preventive approach, day 7
Procedure: as §1
(§3) The WNT/β-catenin signaling pathway in lungs from C57BL/6N mice was activated via intraperitoneal injection of lithium chloride (200 mg/KG/BW/day) (22). Lithium chloride mimics members of the WNT family of signalling proteins by inhibiting the activity of GSK-3β and thus causes intracellular accumulation of β-catenin, a feature associated with the canonical WNT/β-catenin signalling pathway (23). Under these circumstances, β-catenin can enter the nucleus and influence the expression of target genes. Lithium chloride was diluted in sterile water and fresh stock was prepared for every injection. Mice were treated on a daily basis, from day 0, the day of elastase subjection to day 7 in the preventive regime, and from day 7 to 14 in the therapeutic regime, respectively. The following scheme illustrates preventive and therapeutic activation of WNT/β-catenin signaling in experimental emphysema:
(§4) Mice were subjected to a single orotracheal application of elastase, which led to the development of pulmonary emphysema from day 1 to 14. WNT/β-catenin activation by treatment with lithium chloride (LiCl) was initiated on day of elastase subjection to day 7 (referred to as preventive approach), or from day 7 to day 14 (referred to as therapeutic approach), using the indicated concentrations (daily application intraperitonal (i.p.), n=6 for each group).
Total RNA was extracted using Qiagen extraction kits according to the manufacturer's protocol, and cDNAs were generated by reverse transcription using SuperScript™ II (Invitrogen). Quantitative (q)RT-PCR was performed using fluorogenic SYBR Green and the Sequence Detection System Fast 7500 (PE Applied Biosystems). HPRT1 and PBGD, ubiquitously and equally expressed genes free of pseudogenes, were used as a reference gene in all human and mouse qRT-PCR reactions, respectively. PCR was performed using the primers listed in Table 1 and 2, respectively, at a final concentration of 200 nM. Relative transcript abundance of a gene is expressed in ΔCt values (ΔCt=ct^reference−Ct^target). Relative changes in transcript levels compared to controls are ΔΔCt values (ΔΔCt=ΔCt^treated−ΔCt^control). All ΔΔCt values correspond approximately to the binary logarithm of the fold change as mentioned in the text. When relative transcript abundance is of information, expression levels are given in ΔCt levels.

[5] = tested on: elastase-induced emphysema model (mice); test: Histological and immunohistochemical assessment of lung sections, elastase-induced emphysema
Procedure: as §1, §3
as §4, with “group). […]” for “group).”

Structure (SMILES): [Cl-].[Li+] [LiCl, Lithium chloride]
- SP-C protein expression (immunoblot densitometry) [1]: 0.62±0.05
- total collagen content in lung homogenates [2]: 16.1 µg/mL
- mean chord length ([3]; preventive approach, LiCl 200 mg/kg/day i.p. day 0-7, vehicle 109.9±7.8, p=0.0021): 74.0±6.6 μm
- surface area ([3]; preventive approach, LiCl 200 mg/kg/day i.p. day 0-7, vehicle 317.8±27.5, p=0.0067): 560.7±55.7 cm^2
- mean chord length ([3]; therapeutic approach, LiCl 200 mg/kg/day i.p. day 7-14, vehicle 106.4±2.3, p=0.021): 85.3±2.5
- cadherin 1 (cdh1) mRNA, log-fold change LiCl-treated versus untreated lungs ([4]; p=0.003): 0.97±0.20
- aquaporin 5 (aqp5) mRNA, log-fold change LiCl-treated versus untreated lungs ([4]; p=0.025): 0.63±0.18
- thyroid transcription factor 1 (ttf1) mRNA, log-fold change LiCl-treated versus untreated lungs ([4]; p=0.033): 1.20±0.30
- SP-C mRNA, log-fold change LiCl-treated versus untreated lungs ([4]; p=0.0475): −1.21±0.42
- mRNA of type I collagen α1 (col1a1), log-fold change LiCl-treated versus untreated lungs ([4]; p=0.0496): −0.86±0.33
- forkhead box P2 (foxp2) mRNA, log-fold change LiCl-treated versus untreated lungs ([4]; p=0.146): 1.38±0.59
- immunohistochemical staining for SP-C, WNT3a and β-catenin ([5]; preventive approach, compared with vehicle-treated mice): increased appearance of SP-C-positive cells with enhanced staining of the WNT/β-catenin signaling component WNT3a as well as nuclear β-catenin staining
- histological assessment of the lung structure ([5]; preventive approach, day 0-7, H&E staining): marked attenuated emphysematous changes
- histological assessment of the lung structure ([5]; therapeutic approach, day 7-14, H&E staining): marked attenuation of emphysema along with restored lung architecture
